According to ChEMBL document CHEMBL2074126, “A functional assay for quantitation of the apparent affinities of ligands of P-glycoprotein in Caco-2 cells” (Pharm Res, 2001):
pKi: −log10 of the molar value.

How the values were obtained:
[1] = biological target: T1, ATP-dependent translocase ABCB1 (Homo sapiens, UniProt P08183); assay: TP_TRANSPORTER: inhibition of Taxol transepithelial transport (basal to apical) (Taxol: 0.8 uM, Probenecid: 1000 u) in Caco-2 cells; format: functional, cell-based
[2] = biological target: T1, ATP-dependent translocase ABCB1; assay: TP_TRANSPORTER: inhibition of Taxol transepithelial transport (basal to apical) in Caco-2 cells; format: functional, cell-based

T1 sequence (P08183 whole entry): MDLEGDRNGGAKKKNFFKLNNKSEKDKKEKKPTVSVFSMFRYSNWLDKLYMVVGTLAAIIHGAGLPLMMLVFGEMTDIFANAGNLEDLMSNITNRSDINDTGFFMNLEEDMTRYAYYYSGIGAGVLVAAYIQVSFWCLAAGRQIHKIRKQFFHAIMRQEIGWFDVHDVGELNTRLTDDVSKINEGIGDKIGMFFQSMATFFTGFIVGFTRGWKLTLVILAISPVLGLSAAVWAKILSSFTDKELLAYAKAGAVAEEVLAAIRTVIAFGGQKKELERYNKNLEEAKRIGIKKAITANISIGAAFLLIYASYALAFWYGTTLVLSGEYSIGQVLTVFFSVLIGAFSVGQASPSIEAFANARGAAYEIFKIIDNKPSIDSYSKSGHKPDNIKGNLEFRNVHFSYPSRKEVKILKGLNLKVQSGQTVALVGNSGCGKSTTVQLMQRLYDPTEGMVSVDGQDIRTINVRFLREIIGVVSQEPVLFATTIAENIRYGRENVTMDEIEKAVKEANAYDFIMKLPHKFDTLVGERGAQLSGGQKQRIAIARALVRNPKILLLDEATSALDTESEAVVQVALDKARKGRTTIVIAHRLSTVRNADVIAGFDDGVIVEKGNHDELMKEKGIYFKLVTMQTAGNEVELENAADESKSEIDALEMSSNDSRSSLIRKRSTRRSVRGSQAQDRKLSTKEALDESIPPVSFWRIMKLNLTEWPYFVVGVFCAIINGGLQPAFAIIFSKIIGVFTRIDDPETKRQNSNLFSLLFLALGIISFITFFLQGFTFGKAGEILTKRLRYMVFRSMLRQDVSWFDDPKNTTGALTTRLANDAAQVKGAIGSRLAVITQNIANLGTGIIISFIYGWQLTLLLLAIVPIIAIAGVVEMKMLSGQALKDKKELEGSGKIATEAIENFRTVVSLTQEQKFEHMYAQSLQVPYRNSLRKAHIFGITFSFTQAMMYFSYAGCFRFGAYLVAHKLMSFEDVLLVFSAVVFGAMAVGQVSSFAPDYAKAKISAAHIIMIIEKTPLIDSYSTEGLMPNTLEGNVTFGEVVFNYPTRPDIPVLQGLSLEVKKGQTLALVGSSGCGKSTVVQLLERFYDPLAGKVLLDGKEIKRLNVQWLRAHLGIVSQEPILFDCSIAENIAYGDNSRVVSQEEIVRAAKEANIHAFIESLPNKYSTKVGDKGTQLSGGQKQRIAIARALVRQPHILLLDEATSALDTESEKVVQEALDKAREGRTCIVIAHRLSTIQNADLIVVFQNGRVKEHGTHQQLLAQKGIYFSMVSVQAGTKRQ

| Activity [1] | pKi [2] | Compound |
| --- | --- | --- |
| is not an inhibitor [-] | – | CCCN(CCC)S(=O)(=O)c1ccc(C(=O)O)cc1 [PROBENECID] |
| – | 3.50 | CCN(CC)C(=O)Nc1ccc(OCC(O)CNC(C)(C)C)c(C(C)=O)c1 (centres undefined) [CELIPROLOL] |
| – | 5.60 | COc1cccc2c1C(=O)c1c(O)c3c(c(O)c1C2=O)C[C@@](O)(C(C)=O)C[C@@H]3O[C@H]1C[C@H](N)[C@H](O)[C@H](C)O1 [DAUNORUBICIN] |
| – | 5.07 | COc1cccc2c1C(=O)c1c(O)c3c(c(O)c1C2=O)C[C@@](O)(C(=O)CO)C[C@@H]3O[C@H]1C[C@H](N)[C@H](O)[C@H](C)O1 [DOXORUBICIN] |
